Test results published in patent publication US20220185811A1, “FGFR4 KINASE INHIBITOR AND PREPARATION METHOD THEREFOR AND USE THEREOF” (SHOUYAO HOLDINGS (BEIJING) CO., LTD., priority 2019, published 2022).
Where two headings read alike, the source gives them in different places.

Legend:
FGFR-4 kinase = FGFR-4 kinase (Homo sapiens, UniProt P22455); experiment: FGFR-4 kinase activity, homogeneous time-resolved fluorescence (HTRF) method; format: biochemical; settings: ATP 25 μM, FGFR-4 kinase 1 nM, read-out: FGFR4 IC50
FGFR-4 kinase, sequence (P22455 22-802): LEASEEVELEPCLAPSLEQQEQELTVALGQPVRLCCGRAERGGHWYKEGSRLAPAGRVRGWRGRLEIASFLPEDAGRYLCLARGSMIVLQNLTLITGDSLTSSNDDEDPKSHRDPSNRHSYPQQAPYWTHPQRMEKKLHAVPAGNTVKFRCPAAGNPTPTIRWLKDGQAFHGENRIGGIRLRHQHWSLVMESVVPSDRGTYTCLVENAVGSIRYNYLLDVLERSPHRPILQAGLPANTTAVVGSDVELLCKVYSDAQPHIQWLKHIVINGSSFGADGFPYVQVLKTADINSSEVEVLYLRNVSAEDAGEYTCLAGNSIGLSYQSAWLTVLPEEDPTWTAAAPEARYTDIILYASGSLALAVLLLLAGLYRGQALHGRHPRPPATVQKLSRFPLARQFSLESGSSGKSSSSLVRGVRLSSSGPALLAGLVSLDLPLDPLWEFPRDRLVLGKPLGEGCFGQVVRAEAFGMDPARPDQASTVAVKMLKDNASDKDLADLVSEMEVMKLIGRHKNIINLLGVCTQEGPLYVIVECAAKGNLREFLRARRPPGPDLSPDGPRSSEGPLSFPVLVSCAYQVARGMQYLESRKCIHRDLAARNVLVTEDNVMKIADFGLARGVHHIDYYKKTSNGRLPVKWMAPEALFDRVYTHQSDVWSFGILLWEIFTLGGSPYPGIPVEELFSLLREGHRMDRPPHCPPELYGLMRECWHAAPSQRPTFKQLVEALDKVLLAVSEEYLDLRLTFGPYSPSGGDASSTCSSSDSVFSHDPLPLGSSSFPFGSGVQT
Procedure: 1. In vitro determination of the protein activity of compounds: The FGFR-4 kinase activity detection platform was established by the homogeneous time-resolved fluorescence (HTRF) method, and the activity of the compound was determined. 1000 μM compounds were subjected to 3-fold gradient dilution in 100% DMSO 11 times (12 concentrations in total), 4 μL diluent from each concentration was added to 96 μL of reaction buffer (50 mM HEPES, pH 7.4, 5 mM MnCl2, 0.1 mM NaVO3, 0.001% Tween-20, 0.01% BAS, 1 mM DTT) and mixed well, as a 4* compound (final concentration of 0.017 nM-1000 nM) for later use. 2 * FGFR-4 kinase (final concentration of 1 nM) was formulated using reaction buffer and 4*substrate (ATP+TK peptide) (TK peptide, HTRF® KinEASETM-TK, purchased from Cisbio, TK peptide, final concentration of 1 μM, ATP final concentration of 25 μ M) was formulated using reaction buffer. 2.5 μL of 4*compound and then 5 μL of 2 * FGFR-4 kinase were added to a 384-well plate (OptiPlate-384, purchased from PerkinElmer), the mixture was mixed by centrifugation, and 2.5 μL of 4 * substrate mixture was added to start the reaction (total reaction volume of 10 µL). The 384-well plate was placed in an incubator 23° C. and stirred for 60 min before the reaction was stopped by the addition of 5 μL of Eu^3+cryptate-labeled anti-phosphotyrosine antibody (TRF® KinEASE™-TK, purchased from Cisbio) and 5 μL of Streptavidin-XL-665 (HTRF® KinEASE™-TK, purchased from Cisbio). After incubation in the incubator for 1 h, fluorescence values (excitation at 320 nm, detecting emitted light at 665 nm and 620 nm, and a ratio of the two as enzyme activity) were read on Envision (purchased from PerkinElmer). The enzyme activity of each compound was measured at 12 concentrations, and the ICso value of the compound was calculated using GraphPad Prism 5.0 software.
The FGFR-4 kinase activity detection platform was established by homogeneous time-resolved fluorescence (HTRF) method, and the activity of compound was determined. 1000 μM compounds were subjected to 3-fold gradient dilution in 100% DMSO 11 times (12 concentrations in total), 4 μL of diluent from each concentration was added to 96 μL of reaction buffer (50 mM HEPES, pH 7.4, 5 mM MnCl2, 0.1 mM NaVO3, 0.001% Tween-20, 0.01% BAS, 1 mM DTT) and mixed well, as a 4* compound (final concentration of 0.017 nM-1000 nM) for later use. 2 * FGFR-4 kinase (final concentration of 1 nM) was formulated using reaction buffer and 4*substrate (ATP+TK peptide)(TK peptide, HTRF® KinEASE™-TK, purchased from Cisbio, TK peptide, final concentration of 1 μM, ATP final concentration of 25 μM) was formulated using reaction buffer. 2.5 μL of 4 * compound and then 5 μL of 2 * FGFR-4 kinase were added to a 384-well plate (OptiPlate-384, purchased from PerkinElmer), the mixture was mixed by centrifugation, and 2.5 μL of 4 * substrate mixture was added to start the reaction (total reaction volume of 10 μL). The 384-well plate was placed in an incubator 23° C. and stirred for 60 min before the reaction was stopped by the addition of 5 μL of Eu^3+cryptate-labled anti-phosphotyrosine antibody (TRF® KinEASE™-TK, purchased from Cisbio) and 5 μL of Streptavidin-XL-665 (HTRF® KinEASE™-TK, purchased from Cisbio). After incubation in the incubator for 1 h, fluorescence values (excitation at 320 nm, detecting emitted light at 665 nm and 620 nm, and a ratio of the two as enzyme activity) were read on Envision (purchased from PerkinElmer). The enzyme activity of each compopund was measured at 12 concentrations, and the ICso value of the compound was calculated using GraphPad prism 5.0 software.

[1] = Pharmacokinetics in male SD rats, single intragastric administration; format: in vivo; settings: 5 mg/kg suspension, plasma; for AUC(0-inf) / Cmax / Tmax / half-life: rat, po
Procedure: (§1) Male SD rats (Beijing Vital River Laboratory Animal Technology Co., Ltd.) were divided into groups of 3 rats each. The rats were subjected to 5 mg/kg suspension of the test sample by single intragastric administration, respectively. Animals were fasted overnight prior to the experiment from 10 h before dosing to 4 h after dosing. Blood was collected 0.25, 0.5, 1, 2, 4, 6, 8, and 24 h after administration. After isoflurane anesthesia using a small animal anesthesia machine, 0.3 mL of whole blood samples was collected from the fundus venous plexus, placed in a heparin anticoagulant tube, and were centrifuged at 4° C., 4000 rpm for 5 min, plasma was transferred to the centrifuge tube, and stored at −80° C. until analysis. Samples in the plasma were extracted using protein precipitation and the extracts were analyzed by LC/MS/MS.
as §1, with “taken through” for “collected from”, “-80°” for “−80°”

[2] = tested on: Human hepatoma cells Hep3b; experiment: Cell proliferation inhibition, Cell Titer-Glo; format: cell-based; settings: Hep3B, 72 h
Procedure: 2. Determination of cell proliferation activity of compounds:
Cell Titer-Glo ® detection reagent from Promega was used to establish the suspension cell proliferation inhibition screening method. Human hepatoma cells Hep3b (Xiehe Cell Research Center) were cultured in 25 cm^2 or 75 cm^2 plastic tissue culture flasks (Corning®) filled with MEM (Gibco®) medium supplemented with 10% fetal bovine serum (Hyclone®) under 37° C., 95% air and 5% CO2, and subcultured 2-3 times a week.
(§2) Hep3b cells were seeded in a 96-well cell culture plate (Corning®) at a density of 3×10^3 cells/well, […], and cultured under 37° C., 95% air, and 5% CO2. After 24 h the test compound was added: 10 mM compounds (dissolved in DMSO) were subjected to 3-fold gradient dilution in DMSO , […] of diluent from each concentration was added to […] of serum-free medium, and finally […] of compound diluted in the medium was added to the plate seeded with cells. The final concentration of DMSO in the cell culture medium was 0.1% and the final concentration of the test compound was 0.3 nM-[…]. The above cells were incubated for 3 days under 37° C.
After 3 days, the cell viability assay was performed by the Cell Titer-Glo (Promega) kit, and finally, the inhibitory concentration 50% of the compound on cell proliferation, i.e. the IC 50 value, was calculated by the GraphPad Prism 5.0 program.
as §2, with “DMSO,” for “DMSO ,”, “finally,” for “finally”, “of” for “of the”
After 3 days, the cell viability assay was performed by the Cell Titer-Glo (Promega) kit, and finally the inhibitory concentration 50% of the compound on cell proliferation, i.e. the IC 50 value, was calculated by the GraphPad Prism 5.0 program.

FGFR1-4 = settings: background art; equally high-efficiency inhibition of FGFR1-4; cited from earlier work
[3] = second PK table, read-out: T½ (converted)

| Compound | IC50 (FGFR-4 kinase; Table 2) [nM] | AUC(0-inf) ([1]; second PK table) [ng·h/mL] | Cmax ([1]; second PK table) [ng/mL] | Tmax ([1]; second PK table) [h] | half-life [1, 3] [h] | IC50 ([2]; Table 2, 3 days incubation) [nM] | IC50 on FGFR1-4 (FGFR1-4) | other results |
| --- | --- | --- | --- | --- | --- | --- | --- | --- |
| C=CC(=O)Nc1cc(-c2cc3c(cn2)cc(-c2c(Cl)c(OC)cc(OC)c2Cl)c2nccn23)c(OC)cc1N1CCN(C2CC2)CC1 [Example 59] | 1.1 | 3940 | 505 | 2.67 | 3.97 | 63.2 |  |  |
| C=CC(=O)Nc1cc(-c2cc3c(cn2)cc(-c2c(Cl)c(OC)cc(OC)c2Cl)c2nccn23)c(OC)cc1N1C[C@@H]2C[C@H]1CO2 [Example 61, N-(2-((1S,4S)-2-oxa-5-azabicyclo[2.2.1]heptan-5-yl)-5-(4-(2,6-dichloro-3,5-dimethoxyphenyl)imidazo[1,2-a][1,6]naphthyridin-8-yl)-4-methoxyphenyl)acrylamide] | 1.7 | 3050 | 561 | 1.17 | 2.6 | 121 |  |  |
| C=CC(=O)N[C@H]1CCOC[C@H]1Nc1ncc2cc(-c3c(Cl)c(OC)cc(OC)c3Cl)ccc2n1 [Blu-554, reference compound] | 2.21 |  |  |  |  | 66.1 |  | IC50 (FGFR-4 kinase; Table 1): 7.49 nM; T½ ([1]; second PK table): 1.64 h; AUC(0-inf) ([1]; first PK table): 1680 ng·h/mL; Cmax ([1]; first PK table): 362 ng/mL; Tmax ([1]; first PK table): 2.67 h; half-life ([1]; first PK table, read-out: T1/2 (converted)): 1.64 h; IC50 ([2]; Table 1, 3 days incubation): 162 nM |
| C[C@@H](Oc1ccc2[nH]nc(/C=C/c3cnn(CCO)c3)c2c1)c1c(Cl)cncc1Cl [LY2874455] |  |  |  |  |  |  | single-digit nanomolar level |  |
| C=CC(=O)Nc1cc(-c2cc3c(cn2)cc(-c2c(Cl)c(OC)cc(OC)c2Cl)c2nccn23)c(OC)cc1N1CCC2(CCOC2)C1 (centres unmarked) [Example 62, N-(5-(4-(2,6-dichloro-3,5-dimethoxyphenyl)imidazo[1,2-a][1,6]naphthyridin-8-yl)-4-methoxy-2-(2-oxa-7-azaspiro[4, 4]nonan-7-yl)phenyl)acrylamide] | 2.4 | 1120 | 175 | 5.33 | 4.93 | 43.8 |  |  |
| COc1cc(OC)cc(N(CCNC(C)C)c2ccc3ncc(-c4cnn(C)c4)nc3c2)c1 [JNJ-42756493] |  |  |  |  |  |  | single-digit nanomolar level |  |
